How the values were obtained:
[1] = 101 kPa, Liquid; for speed of sound: Linear variable-path acoustic interferometer; for mass density: Pycnometric method
[2] = xn = mol fraction of the nth substance listed; conditions: 101 kPa, Liquid; for speed of sound: Linear variable-path acoustic interferometer; for mass density: Pycnometric method

CC(=O)CC(C)C [4-methylpentan-2-one]
[1]
Conditions	mass density [kg/m3]	speed of sound [m/s]
303.15 K	791.7	1175
308.15 K	787.7	1156
313.15 K	782.6	1138

CC(=O)CC(C)C [4-methylpentan-2-one] + O=S1(=O)CCCC1
[2], x2 = 0
Conditions	mass density [kg/m3]	speed of sound [m/s]
303.15 K	791.7	1175
308.15 K	787.7	1156
313.15 K	782.6	1138

CCC(C)=O [butanone]
[1]
Conditions	mass density [kg/m3]	speed of sound [m/s]
303.15 K	794.6	1178
308.15 K	790.4	1158
313.15 K	783.1	1136

CCC(C)=O [butanone] + O=S1(=O)CCCC1
[2], x2 = 0
Conditions	mass density [kg/m3]	speed of sound [m/s]
303.15 K	794.6	1178
308.15 K	790.4	1158
313.15 K	783.1	1136

CCCC(C)=O [pentan-2-one]
[1]
Conditions	mass density [kg/m3]	speed of sound [m/s]
303.15 K	796.6	1192
308.15 K	792.7	1176
313.15 K	785.5	1151

CCCC(C)=O [pentan-2-one] + O=S1(=O)CCCC1
[2]
Conditions	mass density, 303.15 K [kg/m3]	mass density, 308.15 K [kg/m3]	mass density, 313.15 K [kg/m3]	speed of sound, 303.15 K [m/s]	speed of sound, 308.15 K [m/s]	speed of sound, 313.15 K [m/s]
x2 = 0	796.6	792.7	785.5	1192	1176	1151
x2 = 0.0261	808.2	804.2	797.8	1203	1183	1161
x2 = 0.162	869.2	864.6	858.8	1246	1225	1203
x2 = 0.2945	929.2	924.8	919.1	1290	1271	1251
x2 = 0.445	998.5	994.6	989.1	1352	1340	1318
x2 = 0.5296	1038.2	1034.5	1029.1	1384	1373	1353
x2 = 0.6319	1086.6	1082.8	1078	1429	1418	1401
x2 = 0.7498	1143.2	1139.2	1134.7	1484	1469	1450
x2 = 0.8677	1200.2	1195.8	1191.6	1536	1520	1503
x2 = 0.9799	1253.2	1248.5	1243.6	1580	1562	1549

CCC(=O)CC [pentan-3-one]
[1]
Conditions	mass density [kg/m3]	speed of sound [m/s]
303.15 K	804.5	1197
308.15 K	799.6	1179
313.15 K	794.3	1160

CCC(=O)CC [pentan-3-one] + O=S1(=O)CCCC1
[2]
Conditions	mass density, 303.15 K [kg/m3]	mass density, 308.15 K [kg/m3]	mass density, 313.15 K [kg/m3]	speed of sound, 303.15 K [m/s]	speed of sound, 308.15 K [m/s]	speed of sound, 313.15 K [m/s]
x2 = 0	804.5	799.6	794.3	1197	1179	1160
x2 = 0.0252	815.9	811.1	805.8	1208	1191	1170
x2 = 0.1627	878.1	873.1	867.6	1257	1240	1218
x2 = 0.2922	937.4	931.9	926.6	1300	1283	1263
x2 = 0.4201	996.2	991.1	985.6	1345	1331	1315
x2 = 0.5234	1044.1	1039.1	1033.7	1388	1376	1361
x2 = 0.6292	1093.5	1088.4	1083.1	1435	1421	1406
x2 = 0.7487	1149.4	1144.2	1139.3	1490	1473	1460
x2 = 0.8644	1202.8	1198.1	1193.2	1536	1520	1506
x2 = 0.9804	1253.5	1250	1244.6	1579	1566	1550

O=S1(=O)CCCC1 [sulfolane]
[1]
Conditions	mass density [kg/m3]	speed of sound [m/s]
303.15 K	1261.8	1588
308.15 K	1257	1576
313.15 K	1251.6	1558

O=S1(=O)CCCC1 [sulfolane] + CC(=O)CC(C)C
[2]
Conditions	mass density, 303.15 K [kg/m3]	mass density, 308.15 K [kg/m3]	mass density, 313.15 K [kg/m3]	speed of sound, 303.15 K [m/s]	speed of sound, 308.15 K [m/s]	speed of sound, 313.15 K [m/s]
x1 = 0.0287	803.4	799.3	793.9	1185	1166	1147
x1 = 0.1852	866.6	862.5	856.8	1233	1215	1198
x1 = 0.3272	927.3	923.3	917.6	1281	1263	1247
x1 = 0.4634	989.2	985.1	979.7	1335	1316	1300
x1 = 0.5671	1038.9	1034.6	1029.3	1381	1361	1345
x1 = 0.6671	1088.8	1083.9	1078.5	1426	1407	1391
x1 = 0.7777	1145.1	1140.7	1134.1	1479	1463	1447
x1 = 0.8809	1198.5	1195.1	1187.8	1530	1513	1496
x1 = 0.9829	1252.3	1249.2	1242.3	1578	1564	1550
x1 = 1	1261.8	1257	1251.6	1588	1576	1558

O=S1(=O)CCCC1 [sulfolane] + CCC(=O)CC
[2], x1 = 1
Conditions	mass density [kg/m3]	speed of sound [m/s]
303.15 K	1261.8	1588
308.15 K	1257	1576
313.15 K	1251.6	1558

O=S1(=O)CCCC1 [sulfolane] + CCC(C)=O
[2]
Conditions	mass density, 303.15 K [kg/m3]	mass density, 308.15 K [kg/m3]	mass density, 313.15 K [kg/m3]	speed of sound, 303.15 K [m/s]	speed of sound, 308.15 K [m/s]	speed of sound, 313.15 K [m/s]
x1 = 0.0293	810.6	806.2	799.2	1191	1170	1149
x1 = 0.1391	869.7	865.6	858.7	1234	1215	1195
x1 = 0.2575	931.6	927.5	920.9	1288	1266	1247
x1 = 0.3803	993.5	989.6	983.5	1341	1319	1300
x1 = 0.4834	1043.1	1039.9	1034.4	1386	1366	1346
x1 = 0.5854	1089.7	1086.6	1081.8	1431	1413	1395
x1 = 0.7119	1145.2	1142	1137.2	1481	1465	1450
x1 = 0.8428	1200.5	1196.8	1191.8	1533	1517	1502
x1 = 0.9756	1252.7	1249	1243.7	1581	1568	1552
x1 = 1	1261.8	1257	1251.6	1588	1576	1558

O=S1(=O)CCCC1 [sulfolane] + CCCC(C)=O
[2], x1 = 1
Conditions	mass density [kg/m3]	speed of sound [m/s]
303.15 K	1261.8	1588
308.15 K	1257	1576
313.15 K	1251.6	1558
